Laboratory results as given in patent US20060216330A1, “Peptides having an ace inhibiting effect” (priority 2003, published 2006).
Where two headings read alike, the source gives them in different places. Ends that are not written are not given here. Peptide text beside a SMILES is read from it.

How the values were obtained:
[1] = In vitro gastro-intestinal digestion of Biozate (artificial human gastro intestinal tract)
Method: The stability of peptides in the human gastro-intestinal tract was studied by subjecting Biozate™ to typical conditions in the stomach and small intestine. Gastric conditions were mimicked by dissolving 5.0 g Biozate™, 2.1 g NaCl, 0.1 g NaH2PO4, 0.45 g lipase and 2.9 g pepsin in 900 mL of Millipore Q water. The fluid was adjusted to pH 3.5 with HCl, stirred with a peddle (50 rpm) and kept at 37° C. for 60 min. Subsequently, intestinal conditions were mimicked by adding 9.0 g pancreatin to the simulated gastric fluid and adjusting the pH to 6.8 with NaHCO3. The simulated intestinal fluid was incubated at 37° C. and continuous stirring (50 rpm) for 120 min. Samples were collected at different time points during the in vitro gastro-intestinal digestion. After collection, samples were directly heated at 95° C. for 30 min and subsequently stored at −20° C.
At certain times samples were taken from the GIT model system.

[2] = target: ACE (Homo sapiens, UniProt P12821); assay: ACE activity measurement with fluorogenic substrate Abz-FRK(Dnp)P-OH
Method: ACE activity with the fluorogenic substrate Abz-FRK(Dnp)P—OH was monitored in 0.1 M Tris buffer pH 7.0, containing 100 mM NaCl. […] The ACE activity was continuously followed in a Fluostar (BMG) fluorometer with 2 dispensers by measuring the fluorescence at λex: 320 nm and λem: 420 nm.

[3] = tested on: spontaneously hypertensive rats; settings: Abubakar et al., 1998; cited from earlier work

Chain of ACE (P12821 30-1306, species assumed): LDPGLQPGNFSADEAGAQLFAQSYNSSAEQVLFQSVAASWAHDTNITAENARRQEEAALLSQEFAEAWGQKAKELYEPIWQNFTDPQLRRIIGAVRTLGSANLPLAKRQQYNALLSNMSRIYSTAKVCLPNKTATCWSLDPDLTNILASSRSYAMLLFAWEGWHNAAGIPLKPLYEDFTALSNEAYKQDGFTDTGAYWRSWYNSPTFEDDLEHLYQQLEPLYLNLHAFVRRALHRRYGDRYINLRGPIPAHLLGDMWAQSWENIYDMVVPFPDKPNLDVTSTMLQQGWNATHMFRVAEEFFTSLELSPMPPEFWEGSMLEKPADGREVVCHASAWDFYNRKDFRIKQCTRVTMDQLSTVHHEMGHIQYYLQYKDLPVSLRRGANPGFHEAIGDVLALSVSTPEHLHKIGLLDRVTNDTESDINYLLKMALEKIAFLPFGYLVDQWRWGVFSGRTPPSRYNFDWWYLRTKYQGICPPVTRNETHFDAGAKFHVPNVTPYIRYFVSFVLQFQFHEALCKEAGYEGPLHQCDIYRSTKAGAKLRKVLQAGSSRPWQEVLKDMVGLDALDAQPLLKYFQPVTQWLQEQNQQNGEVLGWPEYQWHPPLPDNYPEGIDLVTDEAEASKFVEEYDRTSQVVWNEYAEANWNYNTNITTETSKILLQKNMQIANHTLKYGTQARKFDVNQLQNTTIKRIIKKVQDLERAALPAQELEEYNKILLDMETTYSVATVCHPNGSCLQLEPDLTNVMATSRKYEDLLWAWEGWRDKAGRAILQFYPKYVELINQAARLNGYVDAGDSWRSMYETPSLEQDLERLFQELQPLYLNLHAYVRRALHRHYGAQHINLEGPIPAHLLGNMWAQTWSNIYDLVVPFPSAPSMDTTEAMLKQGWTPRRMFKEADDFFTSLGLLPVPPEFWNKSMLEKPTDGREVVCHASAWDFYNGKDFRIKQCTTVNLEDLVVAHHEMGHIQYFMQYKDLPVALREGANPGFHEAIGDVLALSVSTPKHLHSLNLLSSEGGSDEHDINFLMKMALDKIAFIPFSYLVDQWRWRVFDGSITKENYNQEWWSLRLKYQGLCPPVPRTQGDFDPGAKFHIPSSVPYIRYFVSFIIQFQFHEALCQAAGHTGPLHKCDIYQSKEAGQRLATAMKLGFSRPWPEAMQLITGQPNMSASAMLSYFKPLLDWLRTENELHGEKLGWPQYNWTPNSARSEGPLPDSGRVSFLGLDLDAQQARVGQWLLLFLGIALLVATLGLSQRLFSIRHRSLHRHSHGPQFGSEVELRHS

| Concentration, Original solution ([1]; Biozate original solution before digestion) [ng/mL] | Concentration, t = 0 min ([1]; t = 0 min, simulated gastric fluid pH 3.5, 37° C.) [ng/mL] | Concentration, t = 60 min ([1]; t = 60 min, end of gastric phase) [ng/mL] | Concentration, t = 65 min ([1]; t = 65 min, simulated intestinal fluid (pancreatin, pH 6.8)) [ng/mL] | Concentration, t = 75 min ([1]; t = 75 min, simulated intestinal fluid) [ng/mL] | Concentration, t = 90 min ([1]; t = 90 min, simulated intestinal fluid) [ng/mL] | Concentration, t = 120 min ([1]; t = 120 min, simulated intestinal fluid) [ng/mL] | Concentration, t = 150 min ([1]; t = 150 min, simulated intestinal fluid) [ng/mL] | Concentration, t = 180 min ([1]; t = 180 min, simulated intestinal fluid) [ng/mL] | IC50 [2] [µM] | Concentration, t = 0 min (pH 3.5) [ng/mL] | Concentration, t = 65 min (pH 6.8) [ng/mL] | Compound | antihypertensive activity [3] |
| --- | --- | --- | --- | --- | --- | --- | --- | --- | --- | --- | --- | --- | --- |
| 0 | 0 | 0 | 9000 | 9000 | 9000 | 9000 | 14000 | 17000 | 50 |  |  | CC[C@H](C)[C@H](N)C(=O)N1CCC[C@H]1C(=O)N[C@@H](C)C(=O)O [IPA] (H-Ile-Pro-Ala-OH; N-terminus and C-terminus assumed) | has antihypertensive activity |
|  |  |  |  |  |  |  |  |  | 120 | 26000 | 3000 | IPAVFK [IPAVFK] |  |
